According to US20240208992A1, “MACROCYCLES AS CFTR MODULATORS” (Idorsia Pharmaceuticals Ltd, priority 2021, published 2024):

Molecular target: human F508del-CFTR (Homo sapiens, UniProt P13569, DEL508-508)
Test: F508del-CFTR cell surface expression (corrector activity), DiscoveRx ß-galactosidase complementation chemiluminescence assay in recombinant U2OS cell line;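 further: U2OS cells co-expressing ProLink-tagged F508del-CFTR and a membrane-anchored enzyme acceptor, where more surface CFTR restores β-galactosidase activity measured by chemiluminescence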
Conditions: for EC50: EC50, F508del-CFTR cell surface expression; for Emax: U2OS
[1] = U2OS cell line, 16h compound incubation, geomean values
[2] = in relation to the Emax of the corrector lumacaftor (=100%), U2OS cell line, 16h compound incubation, arithmetic mean values
[3] = U2OS cells, 16h compound incubation, geomean values
[4] = in relation to Emax of corrector lumacaftor (=100%), arithmetic mean values

human F508del-CFTR, sequence (P13569 with tags, fused parts or gaps DEL508-508): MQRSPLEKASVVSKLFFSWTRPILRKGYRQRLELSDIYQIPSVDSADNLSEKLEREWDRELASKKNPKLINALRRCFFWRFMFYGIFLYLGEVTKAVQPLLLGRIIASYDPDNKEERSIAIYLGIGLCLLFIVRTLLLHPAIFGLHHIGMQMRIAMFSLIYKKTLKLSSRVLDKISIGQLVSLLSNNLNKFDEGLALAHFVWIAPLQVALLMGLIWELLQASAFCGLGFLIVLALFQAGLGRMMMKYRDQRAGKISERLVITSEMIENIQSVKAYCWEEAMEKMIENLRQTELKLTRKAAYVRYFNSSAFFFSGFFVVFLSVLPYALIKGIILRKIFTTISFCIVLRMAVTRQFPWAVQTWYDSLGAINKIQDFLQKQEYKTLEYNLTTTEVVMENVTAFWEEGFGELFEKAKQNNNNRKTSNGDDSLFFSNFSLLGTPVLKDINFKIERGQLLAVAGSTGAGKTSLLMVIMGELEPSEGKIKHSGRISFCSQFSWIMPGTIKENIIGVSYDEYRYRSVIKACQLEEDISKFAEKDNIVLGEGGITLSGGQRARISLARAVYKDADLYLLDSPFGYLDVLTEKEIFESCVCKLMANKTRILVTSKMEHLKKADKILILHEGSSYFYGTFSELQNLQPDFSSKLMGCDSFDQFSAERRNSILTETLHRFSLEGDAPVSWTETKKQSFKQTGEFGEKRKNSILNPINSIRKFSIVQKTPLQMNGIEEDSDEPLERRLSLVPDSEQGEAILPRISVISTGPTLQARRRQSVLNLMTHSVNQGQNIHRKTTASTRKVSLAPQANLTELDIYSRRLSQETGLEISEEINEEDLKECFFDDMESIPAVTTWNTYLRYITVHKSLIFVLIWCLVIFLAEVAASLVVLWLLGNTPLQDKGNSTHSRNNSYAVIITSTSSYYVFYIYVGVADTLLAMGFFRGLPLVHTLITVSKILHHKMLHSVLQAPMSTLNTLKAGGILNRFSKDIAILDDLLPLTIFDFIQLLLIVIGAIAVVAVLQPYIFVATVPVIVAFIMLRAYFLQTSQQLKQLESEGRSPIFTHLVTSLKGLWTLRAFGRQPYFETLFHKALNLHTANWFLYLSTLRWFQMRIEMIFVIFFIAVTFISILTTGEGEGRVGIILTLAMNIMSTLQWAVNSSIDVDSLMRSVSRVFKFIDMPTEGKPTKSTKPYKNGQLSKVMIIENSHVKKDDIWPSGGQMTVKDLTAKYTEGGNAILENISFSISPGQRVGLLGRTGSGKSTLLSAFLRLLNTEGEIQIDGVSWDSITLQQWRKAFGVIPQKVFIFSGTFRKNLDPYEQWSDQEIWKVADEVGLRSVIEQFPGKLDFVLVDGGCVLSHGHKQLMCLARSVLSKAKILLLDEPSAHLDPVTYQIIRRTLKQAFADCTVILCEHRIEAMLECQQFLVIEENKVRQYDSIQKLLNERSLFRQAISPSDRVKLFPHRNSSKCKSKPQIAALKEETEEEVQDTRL

## CCOCC[C@@H]1C(=O)N[C@H](Cc2ccccc2)COc2cc(C)nc(OC)c2C(=O)N[C@H](C(=O)NCCc2cc(C3CC3)no2)CC(=O)N(C)[C@@H](CC(C)C)C(=O)N1C [Example 910, (3R,6R,9S,13S)-3-benzyl-N-(2-(3-cyclopropylisoxazol-5-yl)ethyl)-6-(2-ethoxyethyl)-9-isobutyl-16-methoxy-7,10,18-trimethyl-5,8,11,15-tetraoxo-2,3,4,5,6,7,8,9,10,11,12,13,14,15-tetradecahydropyrido[3,4-p][1]oxa[4,7,10,14]tetraazacycloheptadecine-13-carboxamide]
U2OS cells, 16h compound incubation, geomean of several measurements
  EC50: 477 nM
In relation to the Emax of the corrector lumacaftor (=100%), U2OS cells, 16h compound incubation, arithmetic mean
  Emax: 423%

## CC(C)C[C@H]1C(=O)N2CCOC[C@@H]2C(=O)N[C@H](Cc2ccccc2)COc2cnc3ccccc3c2C(=O)N[C@H](C(=O)NCCc2ccc3c(c2)OCC3)CC(=O)N1C [Example 54, (9S,13S,19aR,22R)-22-benzyl-N-(2-(2,3-dihydrobenzofuran-6-yl)ethyl)-13-isobutyl-12-methyl-7,11,14,20-tetraoxo-7,8,9,10,11,12,13,14,16,17,19,19a,20,21,22,23-hexadecahydro-[1,4]oxazino[3′,4′:6,7][1]oxa[4,7,10,14]tetraazacycloheptadecino[17,16-c]quinoline-9-carboxamide]
[1]
  EC50: 558 nM
[2]
  Emax: 373%

## COc1cccc(CCNC(=O)[C@@H]2CC(=O)N(C)[C@@H](CC(C)C)C(=O)N3CC[C@@H](C3)C(=O)N[C@H](Cc3ccccc3)COc3ccc(OC)cc3C(=O)N2)c1 [Example 584, (13S,4R,10S,14S)-4-benzyl-14-isobutyl-74-methoxy-N-(3-methoxyphenethyl)-13-methyl-2,8,12,15-tetraoxo-6-oxa-3,9,13-triaza-1(3,1)-pyrrolidina-7(1,2)-benzenacyclopentadecaphane-10-carboxamide]
[3]
  EC50: 575 nM
[4]
  Emax: 156%

## COCCN1CCN2C(=O)[C@H](CC(C)C)N(C)C(=O)C[C@@H](C(=O)NCCc3nc4c(s3)CCC4)NC(=O)c3c(cnc4ccccc34)OC[C@@H](Cc3ccccc3)NC(=O)[C@H]2C1 [Example 415, (9S,13S,19aR,22R)-22-benzyl-N-(2-(5,6-dihydro-4H-cyclopenta[d]thiazol-2-yl)ethyl)-13-isobutyl-18-(2-methoxyethyl)-12-methyl-7,11,14,20-tetraoxo-7,8,9,10,11,12,13,14,17,18,19,19a,20,21,22,23-hexadecahydro-16H-pyrazino[2′,1′:6,7][1]oxa[4,7,10,14]tetraazacycloheptadecino[17,16-c]quinoline-9-carboxamide]
[3]
  EC50: 840 nM
[4]
  Emax: 274%

## COc1nccc2c1C(=O)N[C@H](C(=O)NCCc1cc(C)no1)CC(=O)N(C)[C@@H](CC(C)C)C(=O)N1CCc3ccccc3[C@@H]1C(=O)N[C@H](Cc1ccccc1)CO2 [Example 679, (7S,11S,19bR,22R)-22-benzyl-11-isobutyl-4-methoxy-10-methyl-N-(2-(3-methylisoxazol-5-yl)ethyl)-5,9,12,20-tetraoxo-5,6,7,8,9,10,11,12,15,19b,20,21,22,23-tetradecahydro-14H-pyrido[3′,4′:16,17][1]oxa[4,7,10,14]tetraazacycloheptadecino[6,7-a]isoquinoline-7-carboxamide]
[3]
  EC50: 869 nM
[4]
  Emax: 277%

## COc1nccc2c1C(=O)N[C@H](C(=O)NCCc1ccc(Br)cc1)CC(=O)N(C)[C@@H](CC(C)C)C(=O)N1CCCC[C@@H]1C(=O)N[C@H](Cc1ccccc1)CO2 [Example 184, (7S,11S,17aR,20R)-20-benzyl-N-(4-bromophenethyl)-11-isobutyl-4-methoxy-10-methyl-5,9,12,18-tetraoxo-5,6,7,8,9,10,11,12,15,16,17,17a,18,19,20,21-hexadecahydro-14H-dipyrido[2,1-f:3′,4′-p][1]oxa[4,7,10,14]tetraazacycloheptadecine-7-carboxamide]
[1]
  EC50: 410 nM
[2]
  Emax: 205%
